Converted amounts (≈) assume the structure as drawn. “Also recorded” adds a separate entry of the source. Each block holds one compound with its values, some of them ahead of it.
Columns and labels:
[1] = Equilibrium solubility at varying pH (shake flask); format: physicochemical; conditions: for solubility: 25 °C, thermodynamic from solid
Method: Solubility of the compounds was determined by the traditional shake flask method. Aliquots of solid compounds were mixed with an appropriate buffer of the desired pH and equilibrated by shaking at room temperature (˜25° C.) for 6-24 hours. Following aqueous buffers were used for the pH control: 0.1N HCl pH=1.2, 50 mM Lactate buffer pH=3.0, 50 mM Acetate buffer pH=5.0, and 100 mM Phosphate buffer pH 7.4. After equilibration, samples were filtered through a 0.45 um filter and analyzed by HPLC/UV against the calibration curves of standard solution.

DLD-1 = experiment: Cell growth inhibition assay (MTS); format: cell-based; conditions: Homo sapiens
Method: (§1) Compounds of the present invention have been tested for activity against a variety of cancer cell lines. The ability of compounds to inhibit cell growth in this assay is correlated with the reduction of dehydrogenase enzyme activity found in metabolically active cells.
(§2) Materials: A large variety of cancer cells from ATCC were maintained at 37° C., 5% CO2 in DMEM media supplemented with 10% fetal bovine serum, penicillin/streptomycin and fungizone (Invitrogen). NCM460 (Incell), a normal colon epithelial cell line, and human mammary epithelial cells (Cambrex) were maintained at 37° C., 5% CO2 in DMEM and HEBM media (Cambrex), respectively.
(§3) Methods: Test compounds were dissolved and diluted to 300× in DMSO then diluted 1:40 in DMEM. Cells were seeded into 96-well tissue culture plates at 1-5×10^3 per well and cultured at 37° C. for 24 h. Cells were incubated with test compounds for 72 hours followed by incubation with tetrazolium compound (3-(4,5-dimethylthiazol-2-yl)-5-(3-carboxymethoxyphenyl)-2-(4-sulfophenyl)-2H-tetrazolium, inner salt; MTS) and the electron coupling reagent, phenazine methosulfate (PMS) for 4 hr. […] The measurement of the absorbance of the formazan was assessed using an ENVISION™ (Perkin Elmer) microplate reader at 492 nm. The calculated IC50 value is the concentration of the test compound that causes a 50% decrease in the absorbance.

SK-MEL-28 = experiment: Cell growth inhibition assay (MTS); format: cell-based; conditions: Homo sapiens
Method: as §1, §2, §3

A375 = experiment: Cell growth inhibition assay (MTS); format: cell-based; conditions: Homo sapiens
Method: as §1, §2, §3

RKO = experiment: Cell growth inhibition assay (MTS); format: cell-based; conditions: Homo sapiens
Method: as §1, §2, §3

WM-266-4 = experiment: Cell growth inhibition assay (MTS); format: cell-based; conditions: Homo sapiens
Method: as §1, §2, §3

human tumors (A375) = experiment: Xenograft model in athymic mice; format: in vivo, mouse
Method: Compound 17 was injected intra-peritoneally (IP) at 160 mg/kg and compound 19 was injected IP at 300 mg/kg (equivalent dose if expressed in mmole/kg, taking into account salt components).
A mouse xenograft model was performed according to the method of Jacob et al, Gene Ther Mol Biol 2004; 8:213-219 and Wilhelm et al, Cancer Research 2004; 64: 7099-7109.
Animal Care. Six week old female NCr nu/nu mice were purchased from Taconic Farms, Germantown, N.Y. and allowed to acclimate 1-2 weeks. Mice were housed in sterile micro isolator cages, 5 mice per cage and receive food and water ad libitum. All experimental procedures and surgical manipulations were approved in accordance with ArQule's Institutional Animal Care and Use Committee (IACUC).
Tumor Cell Lines and Model. Carcinoma cell lines were obtained from and propagated as recommended by American Type Tissue Culture (ATCC), (Manassas, Va.). Mice were implanted subcutaneously with 2.5-10×10^6 cells in 0.1 ml sterile Hanks Balanced Salt Solution (HBSS) in the upper right flank area. […] Tumor weight (mg) was calculated from the equation length×(width)^2)/2; this formula can also be used to calculate tumor volume assuming unit density 1 mg=1 mm^3 Percent inhibition or tumor growth inhibition (TGI) was calculated using the following formula: 1-[mean tumor value of treated/mean tumor value of control]×100. […]

p-Erk (A375) = experiment: Cell-based phosphorylation assay with electroblotting readout; design: species or system human; conditions: Homo sapiens, A-375; A375 cells, 1 hr
From the text: Compounds of the present invention have been screened for their ability to inhibit all isoforms, both wild-type and mutant of RAF kinases (A-RAF, B-RAF and C-RAF) in general, and the mutant B-RAF (V600E) in particular in human cancer cells. A375 is a human melanoma cell line that harbors the most common B-RAF mutation-V600E found in human cancers. The ability of compounds to inhibit RAF kinases in this assay is correlated with the reduction of MEK and ERK phosphorylation, and is therefore a direct indicator of potential in vivo therapeutic activity.
Materials: A375 cells from ATCC were maintained at 37° C., 5% CO2 in DMEM media supplemented with 10% fetal bovine serum, penicillin/streptomycin and fungizone. (Invitrogen)
Methods: Test compounds were dissolved and diluted 1:1000 in DMSO. A375 cells were seeded in six-well tissue culture plates at 5-8×10^5 per well and cultured at 37° C. for 24 h. Cells were incubated with compounds for one hour before being lysed in EPage™ loading buffer (Invitrogen). Lysates were electrophoresed on 8% EPage™ gels and transferred to polyvinylidene difluoride membranes. After incubations with primary and secondary antibodies, the immunostained proteins were detected and quantitated by an Odyssey infrared imager (LI-COR). Analysis was performed by non-linear regression to generate a dose response curve. The calculated IC50 value was the concentration of the test compound that causes a 50% decrease in phospho-MEK and phospho-ERK levels. The primary antibodies used were anti-MEK (Stressgen), anti-ERK (BD Biosciences), anti-phospho-ERK and anti-phospho-MEK (Cell Signaling). The secondary antibodies used were IRDYE800 anti-rabbit, IRDYE 800 anti-mouse (Rockland), AlexaFluor680 anti-mouse and AlexaFluoro680 anti-rabbit (Invitrogen).
A375 cells were treated with 0, 12, 37, 111, 333 and 1000 nM of indicated compounds for 1 hr. The levels of Phospho-ERK and total-ERK were accessed by immunoblotting.

[2] = aqueous buffer (0.1N HCl), pH 1.2, simulated gastric fluid

solubility ([1]; aqueous buffer (50 mM lactate buffer), aqueous buffer, pH 3.0): 0.01 mg/mL (≈ 19.2 µM)
solubility [1, 2]: 1.05 mg/mL (≈ 2020 µM)
Aqueous solubility ([1]; pH 5.0): insoluble
Aqueous solubility ([1]; pH 7.4): insoluble
GI50 (DLD-1; DLD-1, 72 hours): 12.1 µM
GI50 (SK-MEL-28; SK-MEL-28, 72 hours): 0.097 µM
GI50 (A375; A-375, 72 h, A375, 72 hours): < 0.0004 µM
EC50 (p-Erk (A375)): 0.093 µM
SMILES: Cn1ccc(S(=O)(=O)N2CCC[C@@H](Nc3nccc(-c4c(-c5cccc(O)c5)nc5occn45)n3)C2)n1 [Compound 17, (R)-3-(5-(2-(1-(1-methyl-1H-pyrazol-3-ylsulfonyl)piperidin-3-ylamino)pyrimidin-4-yl)imidazo[2,1-b]oxazol-6-yl)phenol]
GI50 (RKO; 72 hours): 0.095 µM
GI50 (WM-266-4; WM-266-4, 72 hours): 0.0006 µM
anti-tumor activity in a xenograft cancer model (human tumors (A375); IP at 160 mg/kg, FIG. 3, 160 mg/kg): retain their anti-tumor activity; also recorded: equally effective

solubility ([1]; aqueous buffer (50 mM acetate buffer), aqueous buffer, pH 5.0): > 13 mg/mL
solubility ([1]; aqueous buffer (100 mM phosphate buffer), pH 7.4, aqueous buffer): > 300 mg/mL
solubility [1, 2]: < 1.3 mg/mL
solubility in aqueous solution compared with compound 17 ([1]; at or near biologically relevant pH): dramatically more soluble
GI50 (DLD-1; DLD-1, colon): 19 µM
GI50 (SK-MEL-28; SK-MEL-28, malignant melanoma): 1.7 µM
GI50 (A375; A-375, A375, skin): 0.3 µM
GI50 (A375; A-375, A-375, melanoma): 0.28 µM
EC50 (p-Erk (A375)): 0.095 µM
SMILES: Cn1ccc(S(=O)(=O)N2CCC[C@@H](Nc3nccc(-c4c(-c5cccc(OCOP(=O)(O)O)c5)nc5occn45)n3)C2)n1 [Compound 19, (R)-(3-(5-(2-(1-(1-methyl-1H-pyrazol-3-ylsulfonyl)piperidin-3-ylamino)pyrimidin-4-yl)imidazo[2,1-b]oxazol-6-yl)phenoxy)methyl dihydrogen phosphate]
GI50 (RKO; colon carcinoma): 0.57 µM
GI50 (WM-266-4; WM 266-4, WM-266.4, melanoma): 0.13 µM
anti-tumor activity in a xenograft cancer model (human tumors (A375); IP at 300 mg/kg, FIG. 3, 300 mg/kg): retain their anti-tumor activity; also recorded: equally effective

From patent US20100183600A1, “RAF Inhibitors and Their Uses” (ARQULE, INC., priority 2008, published 2010)
